system: GDF8 signaling (p-SMAD-3 (Ser423/425)); experiment: AlphaScreen SureFire SMAD3 (p-Ser423/425) assay, GDF8-stimulated cells (GDF pSMAD); assay type: cell-based; conditions: Mus musculus, MPC-11, GDF8-stimulated pSMAD3, MPC11; tested as the salt form given; read-out: GDF pSMAD (MPC11) (μM), inhibition of GDF8 signaling

IC50 | Compound
0.161 µM | Nc1ncnc2ccc(-c3cccnc3-c3cc(Cl)cc(F)c3F)cc12 [compound 1035, 6-(2-(5-chloro-2,3-difluorophenyl)pyridin-3-yl)quinazolin-4-amine]
1.05 µM | Nc1ncnc2ccc(-c3cccnc3-c3cc(O)c(F)cc3F)cc12 [compound 1013, 5-(3-(4-aminoquinazolin-6-yl)pyridin-2-yl)-2,4-difluorophenol]
6.95 µM | COc1ccc(C)c(-c2ncccc2-c2ccc3ncnc(N)c3c2)c1 [compound 1015, 6-(2-(5-methoxy-2-methylphenyl)pyridin-3-yl)quinazolin-4-amine]
20.2 µM | Cc1cnc(-c2cccc(O)c2)c(-c2ccc3ncnc(N)c3c2)c1 [compound 991, 3-(3-(4-aminoquinazolin-6-yl)-5-methylpyridin-2-yl)phenol]
1.42 µM | Cc1cc(-c2ncccc2-c2ccc3ncnc(N)c3c2)c(C)cc1F [compound 1002, 6-(2-(4-fluoro-2,5-dimethylphenyl)pyridin-3-yl)quinazolin-4-amine]
0.309 µM | Nc1ncnc2ccc(-c3cccnc3-c3ccc4occc4c3)cc12 [compound 1083]

same assay, conditions: Mus musculus, MPC-11, MPC11; GDF8-stimulated; p-SMAD3 AlphaScreen; read-out: GDF pSMAD (MPC11) (inhibition of GDF8 signaling)

Compound | IC50
CCOc1cnc(-c2cccc(C)c2)c(-c2ccc3[nH]ncc3c2)c1 [Compound 3, 5-(5-Ethoxy-2-m-tolylpyridin-3-yl)-1H-indazole] | 1.3 µM
Cc1cc(-c2ncccc2-c2ccc3ncc(C(=O)NCC(O)CO)n3c2)ccc1F (centres unmarked) [compound 613, N-(2,3-Dihydroxypropyl)-6-(2-(4-fluoro-3-methylphenyl)pyridin-3-yl)imidazo[1,2-a]pyridine-3-carboxamide] | 0.624 µM
c1cc(-c2ncccc2-c2ccc3nccn3c2)cc(C2CC2)c1 [Compound 193, 6-(2-(3-Cyclopropylphenyl)pyridin-3-yl)H-imidazo[1,2-a]pyridine] | 0.243 µM
Cc1cccc(-c2ncccc2-c2ccc3c(cnn3C)c2)c1 [Compound 146, 1-Methyl-5-(2-m-tolylpyridin-3-yl)-1H-indazole] | 0.621 µM
Cc1cc(-c2ncc(NCc3ccc(N4CCOCC4)cc3)cc2-c2ccc3ncsc3c2)ccc1F [compound 353, 5-(Benzo[d]thiazol-6-yl)-6-(4-fluoro-3-methylphenyl)-N-(4-morpholinobenzyl)pyridin-3-amine] | 0.689 µM
Cc1cc(-c2ncccc2-c2ccc3ncoc3c2)ccc1F [Compound 180, 6-(2-(4-Fluoro-3-methylphenyl)pyridin-3-yl)benzo[d]oxazole] | 0.422 µM
COc1cnc(-c2ccc(F)c(C)c2)c(-c2ccc3[nH]ncc3c2)c1 [Compound 8, 5-(2-(4-Fluoro-3-methylphenyl)-5-methoxypyridin-3-yl)-1H-indazole] | 5.35 µM
Nc1ncnc2ccc(-c3cccnc3-c3cc(F)ccc3Cl)cc12 [compound 504, 6-(2-(2-Chloro-5-fluorophenyl)pyridin-3-yl)quinazolin-4-amine] | 4.96 µM
COc1cc(CNc2cnc(-c3ccc(F)c(C)c3)c(-c3ccc4ncsc4c3)c2)cc(O)c1OC [compound 367, 5-(((5-(Benzo[d]thiazol-6-yl)-6-(4-fluoro-3-methylphenyl)pyridin-3-yl)amino)methyl)-2,3-dimethoxyphenol] | 0.28 µM
CCc1ncc(CNc2cnc(-c3ccc(F)c(C)c3)c(-c3ccc4ncsc4c3)c2)[nH]1 [compound 323, 5-(Benzo[d]thiazol-6-yl)-N-((2-ethyl-1H-imidazol-5-yl)methyl)-6-(4-fluoro-3-methylphenyl)pyridin-3-amine] | 0.327 µM
Cc1cccc(-c2ncccc2-c2ccc3cn[nH]c3c2)c1 [Compound 102, 6-(2-m-Tolylpyridin-3-yl)-1H-indazole] | 0.341 µM
Cc1cc(-c2ncccc2-c2ccn3ncc(C(=O)O)c3c2)ccc1F [compound 678, 5-(2-(4-Fluoro-3-methylphenyl)pyridin-3-yl)pyrazolo[1,5-a]pyridine-3-carboxylic acid] | 2.47 µM
Cc1cc(-c2ncccc2-c2ccn3c(-c4ccncc4)ncc3c2)ccc1F [compound 287, 7-(2-(4-Fluoro-3-methylphenyl)pyridin-3-yl)-3-(pyridin-4-yl)imidazo[1,5-a]pyridine] | 3.03 µM
O=C(NCCCN1CCCC1=O)c1cnc2ccc(-c3cccnc3-c3cc(F)c(F)cc3F)cn12 [compound 728, N-(3-(2-Oxopyrrolidin-1-yl)propyl)-6-(2-(2,4,5-Trifluorophenyl)pyridin-3-yl)imidazo[1,2-a]pyridine-3-carboxamide] | 5.06 µM
Cc1cc(-c2ncc(NCc3cnc4[nH]ccc4c3)cc2-c2ccc3ncsc3c2)ccc1F [compound 329, N-((1H-Pyrrolo[2,3-b]pyridin-5-yl)methyl)-5-(benzo[d]thiazol-6-yl)-6-(4-fluoro-3-methylphenyl)pyridin-3-amine] | 0.803 µM
Cc1cc(-c2ncccc2-c2ccc3ncnc(OCCCN4CCN(C)CC4)c3c2)ccc1F [compound 434, 6-(2-(4-Fluoro-3-methylphenyl)pyridin-3-yl)-4-(3-(4-methylpiperazin-1-yl)propoxy)quinazoline] | 1.49 µM
Cc1cn2cc(-c3cccnc3-c3cccc(C4CC4)c3)ccc2n1 [compound 533, 6-(2-(3-Cyclopropylphenyl)pyridin-3-yl)-2-methylimidazo[1,2-a]pyridine] | 6.12 µM
Cc1cc(-c2ncccc2-c2ccc3[nH]ncc3c2)ccc1N [Compound 90, 4-(3-(1H-Indazol-5-yl)pyridin-2-yl)-2-methylbenzenamine] | 2.61 µM
Cc1cc(-c2ncc(NCc3ccc(O)c(C(F)(F)F)c3)cc2-c2ccc3ncsc3c2)ccc1F [compound 370, 4-(((5-(Benzo[d]thiazol-6-yl)-6-(4-fluoro-3-methylphenyl)pyridin-3-yl)amino)methyl)-2-(trifluoromethyl)phenol] | 0.411 µM
Cc1cccc(-c2nc(N)ccc2-c2ccc3[nH]ncc3c2)c1 [Compound 23, 5-(1H-Indazol-5-yl)-6-m-tolylpyridin-2-amine] | 2.25 µM
Nc1ccc(-c2ccc3[nH]ncc3c2)c(-c2cccc(C3CC3)c2)n1 [Compound 22, 6-(3-Cyclopropylphenyl)-5-(1H-indazol-5-yl)pyridin-2-amine] | 1.41 µM
Fc1ccc(-c2ncccc2-c2ccc3ncsc3n2)cc1Cl [compound 305, 5-(2-(3-Chloro-4-fluorophenyl)pyridin-3-yl)thiazolo[5,4-b]pyridine] | 0.175 µM
Cc1cc(-c2ncccc2-c2ccc3ncnc(Nc4cccc(C(N)=O)c4)c3c2)ccc1F [compound 410, 3-((6-(2-(4-Fluoro-3-methylphenyl)pyridin-3-yl)quinazolin-4-yl)amino)benzamide] | 4.13 µM
Nc1ncnc2ccc(-c3cccnc3-c3cccc(F)c3Cl)cc12 [compound 503, 6-(2-(2-Chloro-3-fluorophenyl)pyridin-3-yl)quinazolin-4-amine] | 4.82 µM
Cc1cc(-c2ncccc2-c2ccc3ccnc(N)c3c2)ccc1F [compound 298, 7-(2-(4-Fluoro-3-methylphenyl)pyridin-3-yl)isoquinolin-1-amine] | 0.999 µM
Cc1cc(-c2ncccc2-c2ccc3cnc(C(=O)NCCCN4CCCC4)n3c2)ccc1F [compound 273, 6-(2-(4-Fluoro-3-methylphenyl)pyridin-3-yl)-N-(3-(pyrrolidin-1-yl)propyl)imidazo[1,5-a]pyridine-3-carboxamide] | 9.79 µM
Cc1cc(-c2ncccc2-c2ccc3cnc(C(=O)NCCN4CCCC4)n3c2)ccc1F [compound 272, 6-(2-(4-Fluoro-3-methylphenyl)pyridin-3-yl)-N-(2-(pyrrolidin-1-yl)ethyl)imidazo[1,5-a]pyridine-3-carboxamide] | 3.4 µM
Nc1cnc(-c2cccc(C3CC3)c2)c(-c2ccc3[nH]ncc3c2)c1 [Compound 15, 6-(3-Cyclopropylphenyl)-5-(1H-indazol-5-yl)pyridin-3-amine] | 0.0649 µM
COc1cc(CNc2cnc(-c3ccc(F)c(C)c3)c(-c3ccc4ncsc4c3)c2)ccc1O [compound 351, 4-(((5-(Benzo[d]thiazol-6-yl)-6-(4-fluoro-3-methylphenyl)pyridin-3-yl)amino)methyl)-2-methoxyphenol] | 0.215 µM
Nc1ncnc2ccc(-c3cccnc3-c3cccc(OC(F)(F)F)c3)cc12 [compound 452, 6-(2-(3-(Trifluoromethoxy)phenyl)pyridin-3-yl)quinazolin-4-amine] | 0.223 µM

The next lines start with the values.

IC50 | Compound
5.58 µM | COc1cnc(-c2ccc(F)c(Cl)c2)c(-c2ccn3ncnc3c2)c1 [compound 856, 7-(2-(3-Chloro-4-fluorophenyl)-5-methoxypyridin-3-yl)-[1,2,4]triazolo[1,5-a]pyridine]
12.4 µM | Fc1cc(-c2ncccc2-c2ccn3ncnc3c2)cc(F)c1F [compound 875, 7-(2-(3,4,5-Trifluorophenyl)pyridin-3-yl)-[1,2,4]triazolo[1,5-a]pyridine]
0.298 µM | Fc1cc(F)c(-c2ncccc2-c2ccc3ncnn3c2)cc1Cl [compound 749, 6-(2-(5-Chloro-2,4-difluorophenyl)pyridin-3-yl)-[1,2,4]triazolo[1,5-a]pyridine]
3.06 µM | COc1ncnc2ccc(-c3cccnc3-c3cc(Cl)ccc3F)cc12 [compound 820, 6-(2-(5-Chloro-2-fluorophenyl)pyridin-3-yl)-4-methoxyquinazoline]
0.34 µM | Cc1cc(-c2ncccc2-c2ccc3c(N)n[nH]c3c2)ccc1F [compound 786, 6-(2-(4-Fluoro-3-methylphenyl)pyridin-3-yl)-1H-indazol-3-amine]
3.34 µM | Cc1cc(-c2ncccc2-c2ccnc(Nc3ccc(S(N)(=O)=O)cc3)n2)ccc1F [compound 906, 4-((4-(2-(4-Fluoro-3-methylphenyl)pyridin-3-yl)pyrimidin-2-yl)amino)benzenesulfonamide]
1.8 µM | Cc1cc(-c2ncccc2-c2ccc3c(N)noc3c2)ccc1F [compound 794, 6-(2-(4-Fluoro-3-methylphenyl)pyridin-3-yl)benzo[d]isoxazol-3-amine]
9.07 µM | Cc1cc(-c2ncccc2-c2ccnc(Nc3ccc(N4CCOCC4)cc3)n2)ccc1F [compound 904, 4-(2-(4-Fluoro-3-methylphenyl)pyridin-3-yl)-N-(4-morpholinophenyl)pyrimidin-2-amine]
